# Source: patent US7268146B2, “Ring fused pyrazole derivatives as CRF antagonists” (Palo Alto LLC, priority 2001, dated 2007)
# Counter-ions that a name gives are not always drawn.
smiles,measurement,value
"COCCC(O)(COC)c1c2c(nn1C)N(c1c(C)cc(C)cc1C)CCC2 (stereo not shown) [Example 5g, 1,4-Dimethoxy-2-[2-methyl-7-(2,4,6-trimethylphenyl)-4,5,6,7-tetrahydro-2H-pyrazolo[3,4-b]pyridin-3-yl]butan-2-ol]",melting point,107.9 to 110.9 °C
"CCC(=O)Nc1c2c(nn1C)N(c1c(C)cc(C)cc1C)CCC2 [Example 10c, N-[2-Methyl-7-(2,4,6-trimethylphenyl)-4,5,6,7-tetrahydro-2H-pyrazolo[3,4-b]pyridin-3-yl]propionamide]",melting point,226 to 228 °C
"CCCC(O)(CCC)c1c2c(nn1C)N(c1c(C)cc(C)cc1Cl)CCC2 [Example 5a, 4-[7-(2-Chloro-4,6-dimethylphenyl)-2-methyl-4,5,6,7-tetrahydro-2H-pyrazolo[3,4-b]pyridin-3-yl]heptan-4-ol]",melting point,129 to 130 °C
"CCCN(CCC)c1c2c(nn1C)N(c1c(C)cc(C)cc1C)CCC2 [Example 9ae, [2-Methyl-7-(2,4,6-trimethylphenyl)-4,5,6,7-tetrahydro-2H-pyrazoio[3,4-b]pyridin-3-yl]-dipropylamine]",melting point,88.9 to 91.5 °C
"CC/C=C(\CCC)c1c2c(nn1C)N(c1c(C)cc(C)cc1C)CCCC2 [Example 6d, 2-Methyl-3-(1-propylbut-1-enyl)-8-(2,4,6-trimethylphenyl)-2,4,5,6,7,8-hexahydro-1,2,8-triazaazulene]",melting point,101.9 to 103.9 °C
"CCCC(COC)Nc1c2c(nn1C)N(c1c(C)cc(C)cc1C)CCC2 (stereo not shown) [Example 9ak, (1-Methoxymethylbutyl)-[2-methyl-7-(2,4,6-trimethylphenyl)-4,5,6,7-tetrahydro-2H-pyrazolo[3,4-b]pyridin-3-yl]-amine]",melting point,100.1 to 104.4 °C
"CCCC(CCC)c1c2c(nn1C)N(c1c(C)cc(C)cc1C)CCCC2 [Example 7d, 2-Methyl-3-(1-propylbutyl)-8-(2,4,6-trimethylphenyl)-2,4,5,6,7,8-hexahydro-1,2,8-triazaazulene]",melting point,96 to 98.1 °C
"Cc1cc(C)c(N2CCCc3c2nn(C)c3C(=O)O)c(C)c1 [Example 8b, 7-(2,4,6-Trimethylphenyl)-2-methyl-4,5,6,7-tetrahydro-2H-pyrazolo[3,4-b]pyridine-3-carboxylic acid]",melting point,228.6 to 233.9 °C
"Cc1cc(C)c(N2CCCc3c2nn(C)c3C2(O)CCOCC2)c(C)c1 [Example 5l, 4-[2-Methyl-7-(2,4,6-trimethylphenyl)-4,5,6,7-tetrahydro-2H-pyrazolo[3,4-b]pyridin-3-yl]tetrahydropyran-4-ol]",melting point,193 to 195.1 °C
"Cc1cc(C)c(N2CCCc3c2nn(C)c3C(O)c2ccco2)c(C)c1 (stereo not shown) [Example 5i, Furan-2-yl[2-methyl-7-(2,4,6-trimethyl-phenyl)-4,5,6,7-tetrahydro-2H-pyrazolo[3,4-b]pyridin-3-yl]methanol]",melting point,163.1 to 174.4 °C
"CCCC(O)(c1nccn1CC)c1c2c(nn1C)N(c1c(C)cc(C)cc1C)CCC2 (stereo not shown) [Example 5k, 1-(1-Ethyl-1H-imidazol-2-yl)-1-[2-methyl-7-(2,4,6-trimethylphenyl)-4,5,6,7-tetrahydro-2H-pyrazolo[3,4-b]pyridin-3-yl]butan-1-ol]",melting point,94.9 to 100.9 °C
"CCCC(O)(CCC)c1c2c(nn1C)N(c1c(C)cc(C)cc1C)CCCC2 [Example 5d, 4-[2-Methyl-8-(2,4,6-trimethylphenyl)-2,4,5,6,7,8-hexahydro-1,2,8-triazaazulen-3-yl]heptan-4-ol]",melting point,87 to 91.1 °C
"COCC(=O)Nc1c2c(nn1C)N(c1c(C)cc(C)cc1C)CCC2 [Example 10d, 2-Methoxy-N-[2-methyl-7-(2,4,6-trimethyl-phenyl)-4,5,6,7-tetrahydro-2H-pyrazolo[3,4-b]pyridin-3-yl]acetamide]",melting point,133.8 to 135 °C
"Cc1cc(C)c(N2CCCc3c2nn(C)c3C(=O)N2CCc3ccccc3C2)c(C)c1 [Example 10b, (3,4-Dihydro-1H-isoquinolin-2-yl)-[2-methyl-7-(2,4,6-trimethyl-phenyl)-4,5,6,7-tetrahydro-2H-pyrazolo[3,4-b]pyridin-3-yl]-methanone]",melting point,80.3 to 87.7 °C
"Cc1cc(C)c(N2CCCc3c2nn(C)c3Br)c(C)c1 [Example 3, 3-Bromo-2-methyl-7-(2,4,6-trimethyl-phenyl)-4,5,6,7-tetrahydro-2H-pyrazolo[3,4-b]pyridine]",melting point,94.6 to 97.9 °C
"CCCC(O)(CCC)c1c2c(nn1C)N(c1ccc(Cl)cc1Cl)CCC2 [Example 5e, 4-[7-(2,4-Dichlorophenyl)-2-methyl-4,5,6,7-tetrahydro-2H-pyrazolo[3,4-b]pyridin-3-yl]heptan-4-ol]",melting point,121.4 to 122.6 °C
"CC/C=C(\CCC)c1c2c(nn1C)N(c1c(C)cc(C)cc1Cl)CCC2 [Example 6a, 7-(2-Chloro-4,6-dimethylphenyl)-2-methyl-3-(1-propylbut-1-enyl)-4,5,6,7-tetrahydro-2H-pyrazolo[3,4-b]pyridine]",melting point,86.7 to 88.2 °C
"Cc1cc(C)c(N2CCCc3c2nn(C)c3NC(=O)OC(C)(C)C)c(Cl)c1 [Example 8c, [7-(2-Chloro-4,6-dimethylphenyl)-2-methyl-4,5,6,7-tetrahydro-2H-pyrazolo[3,4-b]pyridin-3-yl]carbamic acid tert-butyl ester]",melting point,171.4 to 175.7 °C
"CCCC(O)(CCC)c1c2c(nn1C)N(c1c(C)cc(C)cc1C)CCC2 [Example 5b, 4-[2-Methyl-7-(2,4,6-trimethylphenyl)-4,5,6,7-tetrahydro-2H-pyrazolo[3,4-b]pyridin-3-yl]heptan-4-ol]",melting point,126 to 127.9 °C
"CCC(O)c1c2c(nn1C)N(c1c(C)cc(C)cc1C)CCC2 (stereo not shown) [Example 5j, 1-[2-Methyl-7-(2,4,6-trimethylphenyl)-4,5,6,7-tetrahydro-2H-pyrazolo[3,4-b]pyridin-3-yl]propan-1-ol]",melting point,179.4 to 180.9 °C
"Cc1cc(C)c(N2CCCc3cn(C)nc32)c(Cl)c1 [Example 5m, 7-(2-Chloro-4,6-dimethylphenyl)-2-methyl-4,5,6,7-tetrahydro-2H-pyrazolo[3,4-b]pyridine]",melting point,97 to 98 °C
"CCC(CC)Nc1c2c(nn1C)N(c1c(C)cc(C)cc1C)CCC2 [Example 9af, (1-Ethylpropyl)-[2-methyl-7-(2,4,6-trimethyl-phenyl)-4,5,6,7-tetrahydro-2H-pyrazolo[3,4-b]pyridin-3-yl]-amine]",melting point,99.3 to 104.9 °C
"Cc1cc(C)c(N2CCCc3c2nn(C)c3CN2CCc3ccccc3C2)c(C)c1 (as salt: hydrochloride) [Example 11, 2-[2-Methyl-7-(2,4,6-trimethyl-phenyl)-4,5,6,7-tetrahydro-2H-pyrazolo[3,4-b]pyridin-3-ylmethyl]-1,2,3,4-tetrahydroisoquinolinedihydrochloride]",melting point,236.4 to 241 °C
"CC/C=C(\CCC)c1c2c(nn1C)N(c1c(C)cc(C)cc1C)CCC2 [Example 6b, 2-Methyl-3-(1-propylbut-1-enyl)-7-(2,4,6-trimethylphenyl)-4,5,6,7-tetrahydro-2H-pyrazolo[3,4-b]pyridine]",melting point,101.6 to 102.6 °C
"CCCC(c1cccs1)c1c2c(nn1C)N(c1c(C)cc(C)cc1C)CCC2 (stereo not shown) [Example 7c, 2-Methyl-3-(1-thiophen-2-ylbutyl)-7-(2,4,6-trimethylphenyl)-4,5,6,7-tetrahydro-2H-pyrazolo[3,4-b]pyridine]",melting point,87.6 to 90.3 °C
